Laboratory results: US20230228744A1, “DRY EYE DISEASE BIOMARKERS AND THEIR USE FOR TREATMENT” (Aldeyra Therapeutics, Inc., priority 2020, published 2023)
Entries after “also recorded” stand apart in the source; their conditions may differ.

System: malondialdehyde (MDA) adducts in tears
Assay: Phase 2a clinical study, MDA adduct competitive ELISA in tears
Type: in vivo, human
Conditions: 28 days (4 weeks) of treatment, pooled reproxalap groups
Text: The study was to assess levels of malondialdehyde (MDA) adducts in tears collected from subjects with dry eye disease enrolled in a Phase 2a, randomized, double-masked, clinical study to assess the safety, tolerability, and pharmacodynamic activity of ADX-102 ophthalmic solution in subjects with dry eye diseases, also referred to herein as dry eye syndrome (DES).
Tears were collected during Visit 1, prior to treatment, and during Visit 3, following four weeks of treatment. Treatment groups consisted of ADX-102 Ophthalmic Solution (0.5%), ADX-102 Ophthalmic Solution (0.1%), and ADX-102 Ophthalmic Lipid Solution (0.5%). […]
The assay is a competitive ELISA. […] The plate is read in a microplate reader at 450 nm. The assay OD reading decreases with increasing MDA adducts in the samples, as the adsorbed MDA competes for binding to the MDA antibody with MDA adducts in the test sample. […]
DES Study Samples. Based on the results of the pilot assay, a 1:60 dilution was determined to maximize the likelihood of the OD values falling within the linear portion of the standard curve, and thus provide the most accurate results. All tear samples from subjects (0.5% ADX-102 Ophthalmic Solution) and (0.1% ADX-102 Ophthalmic Solution) were analyzed, but results from some tear samples were excluded from the data analysis due to contamination with ocular staining dye in the Visit 3 samples. […]

SMILES: CC(C)(O)c1nc2ccc(Cl)cc2cc1N [reproxalap, Reproxalap]
- tear MDA adduct / RASP levels after treatment relative to baseline (pooled groups): reduction in tear RASP levels; also recorded: statistically lower
